Entries after “also recorded” stand apart in the source; their conditions may differ.
Tests used:
hES cells [1] = assay: qRT-PCR of cardiac and lineage marker genes in differentiating EBs; format: cell-based, human
Procedure: RNA extraction: EBs at the end of the twelve day period or as indicated in the text were harvested. All EBs from 3 wells were pooled and washed once in PBS^−. Trizol (Invitrogen) was added before freezing the EBs at −80° C. to enhance cell lysis. Frozen samples were thawed and harshly mixed. Chloroform was added to the sample and incubated for 3 min at room temperature. The sample was centrifuged for 15 min at 13000 rpm at 4° C. and the aqueous phase collected. An equal volume of 70% ethanol was added before the sample was loaded onto an RNeasy mini column (Qiagen). The column was centrifuged for 15 sec at ≧8000 g. The rest of the purification steps were performed according to manufacturer's instructions. RNA was eluted in RNase-free water. 5 μg of the RNA sample were then treated with DNase (Invitrogen) in a volume of 50 μl. The mixture was incubated at room temperature for 30 min and heat inactivated for 10 min at 80° C. before cooling rapidly on ice.
Reverse transcriptase: 5 μg of total RNA was mixed with 2 μl of 3 μg/μl random primers (Invitrogen) in a final volume of 100 μl. 75 μl were reversed transcribed (BioLabs), the remaining 25 μl served as a negative control. Samples were incubated for 1 hour at 37° C. before the reaction was terminated for 5 min at 95° C.
Real-time PCR: The PCR reaction was performed on 100 ng of cDNA, with 15 μl of 2× IQ™ SYBR® Green Supermix (Biorad) in a final reaction volume of 30 μl. To minimize variations in the triplicates, a master mix was prepared containing all reaction components except cDNA. PCR was performed on an iCycler™ (Biorad), annealing at 58° C. for 30 sec, extension at 72° C. for 45 sec, 40 cycles in total. Relative expression values were obtained by normalizing CT values of the tested genes in comparison with CT values of the housekeeping gene α-Actin using the ΔΔ CT method (19). The samples were subjected to PCR amplification with human gene primers including: […]
The samples were subjected to PCR amplification with human gene primers including: […]
The samples were subjected to PCR amplification with human gene primers including MESP1 (sense primer: […]; antisense primer: […]).

hES cells [2] = assay: hES differentiation as embryoid bodies (EBs) in suspension culture, scoring of beating EBs; format: cell-based, human; conditions: for number of EBs with beating foci: 5 μM in END2-CM, added early (during or shortly after EB formation), day 12, vs END2-CM alone
Procedure: This method describes hES differentiation through the formation of embryoid bodies (EB) from hES cells grown on MEF. EBs can also be generated from hES grown in feeder free systems. Formed EBs were then cultured in respective media such as SF or END2-CM. […] Enzymatically passaged hES cells grown on feeder cells were washed once with PBS^+ and treated with Collagenase IV (1 mg/ml) for 3-4 min at 37° C. The Collagenase IV solution was replaced by DMEM and the cells were mechanically dissociated with a pipette tip. Cells were then harvested using a cell scraper and the cell suspension was transferred to a 50 ml tube (Falcon). Cell clumps were collected by gravity and the supernatant was aspirated. Cells were resuspended in fresh DMEM medium aiming to uniformly disperse the cell clumps in the suspension. An equal volume of the cell suspension was then transferred to ultra low attachment plates (Costar). […] Alternatively, cells can be seeded into plates under conditions supporting cell adherence to induce differentiation of hES attached to a surface. In suspension culture, EBs were formed in ultra low attachment plates in SF medium over night. After over night incubation SF medium was replace by fresh SF medium or END2-CM respectively for further differentiation. Subsequent medium changes were performed every 3-4 days. Usually, cells were cultured over a period of 12-13 days before the visual analysis of the proportion of beating EBs under a microscope was performed followed by cell collection for additional readouts. Multiple beating areas on single EBs were not counted separately. […] Cell harvest and analysis at time points other then 12-13 days after EB formation is indicated in the respective examples and figures of this embodiment. […] An average value per well was calculated and presented. hES differentiation in suspension culture: EBs were formed in ultra low attachment plates in SF medium over night. After over night incubation SF medium was replace by fresh SF medium or END2-CM. […] Subsequent medium changes were performed every 3-4 days. Usually, cells were cultured over a period of 12-13 days. […] Medium change was performed at day 3, 6 and 9 after EB formation.

hES cells [3] = conditions: Vitamin C added to the END2-hES co-culture system; cited from earlier work
[4] = tested on: mouse embryonic carcinoma cell line P19; conditions: cited from earlier work
hES cells [5] = assay: Quantification of cardiomyocytes by Cytospin and MF20 staining; format: cell-based, human
Procedure: (§1) To more accurately determine the number of cardiomyocytes in the differentiated cell population, EBs were collected, washed in PBS^− and incubated with 0.05% Trypsin for 5 min at 37° C. Cell clumps were triturated and incubated for another 5 min at 37° C. Trypsin activity was inactivated with serum containing media and cells were collected via centrifugation at 2500 rpm for 4 min at 4° C. The cell pellet was resuspended in PBS for cell count and cytospun onto glass slides at 500 rpm for 5 min at low acceleration using 1×10^5 cells. Cells were stained immediately (see previous example) and a cell count performed.
(§2) Readouts were performed on day 13: the percentage of beating EBs was defined, the average cell number per well was counted via a cytometer after EBs dissociation with trypsin, the percentage of cardiomyocytes was divined via cytospin followed by cardiomyocyte specific anti α-Myosin Heavy Chain stain (MF20 antibody), and RNA was harvest for qRT-PCR.

hES cells [6] = assay: hES differentiation as embryoid bodies (EBs) in suspension culture, scoring of beating EBs; format: cell-based; conditions: hES maintained on human feeder (HF), 12 days; END2-CM only, or SB203580 at 5 μM in END2-CM
[7] = tested on: JNK and/or p42/p44 MAP kinase; conditions: cited from earlier work
hES cells [8] = assay: EB morphology, H&E staining on paraffin sections; format: cell-based, human
Procedure: Paraffin sections: Beating EBs were collected and fixed for 15 min in 10% formalin at room temperature. EBs were then embedded in 1.5% agarose and dehydrated through 70% to 100% ethanol with a last incubation in xylene. The agarose block was then embedded in paraffin. 5 μm thick sections were cut in ribbons, floated on a warm water bath of 45° C., mounted on slides, and left to air dry at 37° C. overnight.
For hES culture on human feeder cells, see Example 2. For Immunohistochemistry performed here, see example 3. H&E staining on Paraffin sections was performed at the BSF facility (Biopolis).

hES cells [9] = assay: Cell count per well after EB differentiation
Procedure: as §1, §2

[10] = END2-CM supplemented with 0.1 mM Vitamin C, day 12
[11] = 0.2 μM and 2 μM in bSF, 12 days
[12] = Example 5, END2-CM alone, or SB203580 at 5 μM in END2-CM
[13] = high concentration (20 μM) in END2-CM
[14] = inhibitor added day 6 onwards, END2-CM

## O=C1O[C@H]([C@@H](O)CO)C(O)=C1O [Vitamin C]
hES cells [1]; [10]
  expression of cardiac specific markers ANF or α-MHC: increased
hES cells [2]; [10]
  increase in the number of beating EBs: up to 20%
hES cells [3]
  increase in the number of beating areas: up to 40%

## CCCCC[C@H](O)/C=C/[C@@H]1[C@H]2C/C(=C/CCCC(=O)[O-])O[C@H]2C[C@H]1O.[Na+] [PGI2, (5Z, 9α, 11α, 13E, 15S)-6,9-Epoxy-11,15-dihydroxyprosta-5,13-dien-1-oic acid Sodium salt]
hES cells [1]; [11]
  fold higher relative expression of the cardiac marker α-MHC: 2-3 fold
hES cells [2]; [11]
  fold higher percentage of beating EBs: 3 fold
hES cells [2]; bSF with PGI2 at 0.2 μM and 2 μM
  EB beating levels and marker gene expression levels compared to END2-CM: equivalent or even higher

## C[S+]([O-])c1ccc(-c2nc(-c3ccc(F)cc3)c(-c3ccncc3)[nH]2)cc1 (centres unmarked) [SB203580, 4-(4-Fluorophenyl)-2-(4-methylsulfinylphenyl)-5-(4-pyridyl)1H-imidazole]
[4]
  cardiomyocyte differentiation in P19: prevented cardiomyocyte differentiation
hES cells [5]; 5 μM in END2-CM, day 13
  percentage of cardiomyocytes: slightly elevated
hES cells [5]; 5 μM in bSFS, day 13
  proportion of cardiomyocytes: almost tripled
hES cells [5]; [12]
  cardiomyocytes (MF-20 positive) in EBs at day 12: 21.7%
hES cells [1]; 5 μM from the start in END2-CM vs END2-CM alone
  expression of cardiac markers at day 12: increased expression
hES cells [1]; 5 μM in END2-CM
  Brachyury expression around day 4: strong upregulation
  expression of skeletal (Myf5), endoderm (Sox17) or neuroectoderm (Sox1) markers: did not induce expression
  expression of the cardiac markers Nkx2.5 and α-MHC at day 12: higher expression
hES cells [1]; 5 and 20 μM in END2-CM
  Brachyury expression: upregulated
hES cells [1]; END2-CM supplemented with 25 μM
  Sox1 expression: significantly expressed
hES cells [1]; Example 7, 5 μM in END2-CM
  α-MHC expression at day 12: increased
hES cells [1]; Example 7, 20 μM in END2-CM
  expression of precardiac mesoderm (Nkx2.5) and cardiac marker genes: reduced
hES cells [1]; SF medium, from 10 μM onwards
  Sox1 expression: upregulated
hES cells [1]; [13]
  Sox1 expression: strongly upregulated
  Sox17 expression at day 12: higher expressed
hES cells [1]; higher concentration (20 μM) in END2-CM
  Mesp1 expression: comparable to EBs grown in SF medium
hES cells [1]; highest concentration (25 μM) in END2-CM
  expression of α-MHC: barely detectable
hES cells [1]; [14]
  expression of α-MHC at day 12: no effect
hES cells [1]; low concentration (5 μM) in END2-CM
  Mesp1 expression: higher expressed
hES cells [1]; over 10 μM in END2-CM
  expression of α-MHC: declined
hES cells [6]
  percentage of beating EBs: 60-87%
hES cells [2]
  number of EBs with beating foci: increased
hES cells [2]; 15 μM or more in END2-CM
  beating: declined
hES cells [2]; 20 μM in END2-CM
  formation of beating foci at day 12: almost completely suppressed
hES cells [2]; 25 μM in END2-CM
  beating: no beating detectable
hES cells [2]; END2-CM with SB203580
  size of the contracting area and beating frequency of beating foci: positive effect
hES cells [2]; [12]
  beating EBs at day 12: 78%
hES cells [2]; SF medium supplemented with 5 μM
  beating foci on EBs: beating foci were detected
hES cells [2]; added during the first 3 days of differentiation
  number of beating foci per EB at day 12: remarkable increase
hES cells [2]; hES batches less responsive to END2-CM (below 50% beating), SB203580 in END2-CM
  percentage of beating EBs: more than 60%
hES cells [2]; [14]
  number of beating foci: no effect
hES cells [2]; up to 10 μM in END2-CM, 12 days, vs non-supplemented END2-CM
  number of beating foci: increase
[7]
  inhibition of JNK and/or p42/p44 MAP kinase: does not inhibit
hES cells [8]; higher concentrations in END2-CM, 12 days
  morphology of EBs: more compact and do not form epithelial visceral endoderm
hES cells [8]; higher doses (>5 μM-25 μM), END2 CM
  appearance of neural progenitor population in EBs: morphological uniform neuroepithelial EBs with clear rosette structure formed
hES cells [8]; serum free condition + 10 μM, 12 days
  neurite-like outgrowth of attached EBs: high number of neurite-like outgrowth
hES cells [9]; CM + 5 μM SB203580
  day 13 cell count per well of a 6-well plate: 3.63 × 10^6
hES cells [9]; Example 5, END2-CM alone, or END2-CM supplemented with 5 μM SB203580
  total cell number at day 12: 1.16×10^6 cells/well

## Oc1ccc(-c2nc(-c3ccncc3)c(-c3ccc(F)cc3)[nH]2)cc1 [SB202190]
hES cells [2]
  number of EBs with beating foci: the same effect; also recorded: comparable cardiogenic effect

## CC(=O)O [AA, Acetic Acid]
hES cells [5]; 0.5 μM or 5 μM AA in bSFS, day 13
  proportion of cardiomyocytes: slightly increased
hES cells [1]; 0.5 μM in bSFS vs bSFS alone
  relative expression of α-MHC: about the same
hES cells [1]; 5 μM in bSFS vs bSFS alone
  relative expression of α-MHC: slide increase
hES cells [1]; AA at a 0.5 μM concentration in bSFS (second statement)
  fold increase in relative α-MHC expression: about 2 fold
hES cells [2]; 0.5 μM in bSFS vs bSFS alone
  percentage of beating EBs on day 13: about the same
hES cells [2]; 5 μM in bSFS vs bSFS alone
  percentage of beating EBs on day 13: slide increase
hES cells [9]; bSFS + 0.5 μM Acetic Acid (AA)
  day 13 cell count per well of a 6-well plate: 1.18 × 10^6
hES cells [9]; bSFS + 5.0 μM AA
  day 13 cell count per well of a 6-well plate: 1.03 × 10^6
